The text below walks through data of paper PMC10751545 (Science (New York, N.Y.), 2023).

The Kd is the equilibrium constant for the complex coming apart. By IC50 is commonly meant the concentration at which inhibition is half-maximal.

Molecules are shown by their SMILES. Like-named read-outs stand apart in the source and are kept apart here.

Assay [1] addresses T1, GPR158 (Homo sapiens, UniProt Q5T848).
T1 sequence (Q5T848 24-1215): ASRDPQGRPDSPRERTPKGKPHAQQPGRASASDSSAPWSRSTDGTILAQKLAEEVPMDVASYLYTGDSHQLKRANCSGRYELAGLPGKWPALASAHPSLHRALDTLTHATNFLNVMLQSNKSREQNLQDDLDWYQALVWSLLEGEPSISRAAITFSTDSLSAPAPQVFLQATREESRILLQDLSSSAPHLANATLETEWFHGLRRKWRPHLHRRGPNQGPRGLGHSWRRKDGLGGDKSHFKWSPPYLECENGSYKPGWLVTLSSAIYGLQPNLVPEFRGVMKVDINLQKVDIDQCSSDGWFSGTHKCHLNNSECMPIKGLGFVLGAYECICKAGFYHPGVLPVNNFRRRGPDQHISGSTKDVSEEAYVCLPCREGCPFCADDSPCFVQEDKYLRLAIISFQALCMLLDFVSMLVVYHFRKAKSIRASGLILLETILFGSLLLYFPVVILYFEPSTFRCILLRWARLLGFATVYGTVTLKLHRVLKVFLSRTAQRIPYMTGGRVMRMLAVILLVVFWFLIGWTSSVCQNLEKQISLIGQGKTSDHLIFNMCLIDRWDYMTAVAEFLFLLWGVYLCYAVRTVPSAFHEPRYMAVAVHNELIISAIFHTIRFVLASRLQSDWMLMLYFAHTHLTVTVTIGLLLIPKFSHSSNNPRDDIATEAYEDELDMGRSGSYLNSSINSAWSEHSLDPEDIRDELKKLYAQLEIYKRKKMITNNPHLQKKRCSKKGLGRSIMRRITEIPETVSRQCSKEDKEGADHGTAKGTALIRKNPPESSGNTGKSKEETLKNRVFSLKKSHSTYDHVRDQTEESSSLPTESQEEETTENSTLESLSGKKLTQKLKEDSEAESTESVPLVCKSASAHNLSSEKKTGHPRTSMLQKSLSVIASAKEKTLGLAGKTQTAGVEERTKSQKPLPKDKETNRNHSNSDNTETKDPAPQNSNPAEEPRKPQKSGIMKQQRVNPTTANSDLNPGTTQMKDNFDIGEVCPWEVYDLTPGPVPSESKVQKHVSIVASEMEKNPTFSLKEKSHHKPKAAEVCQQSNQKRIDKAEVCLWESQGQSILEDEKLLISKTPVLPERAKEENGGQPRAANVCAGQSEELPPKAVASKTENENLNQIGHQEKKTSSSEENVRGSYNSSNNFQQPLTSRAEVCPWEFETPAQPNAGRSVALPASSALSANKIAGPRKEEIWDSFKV

The subject of assay [2] is GPR158 R173A, E271A, and Y269A mutants.
For assay [3], the target named is T1, GPR158. This is another data set of the same source.
Assay [4] has as its target T1, GPR158. This is another data set of the same source.
Another assay addresses T2, GPR158-RGS7/Gβ5 complex (Homo sapiens, UniProt Q5T848).
T2 sequence (Q5T848 24-1215): T1 sequence (Q5T848 24-1215)
T2 sequence (P49802 1-495 partner): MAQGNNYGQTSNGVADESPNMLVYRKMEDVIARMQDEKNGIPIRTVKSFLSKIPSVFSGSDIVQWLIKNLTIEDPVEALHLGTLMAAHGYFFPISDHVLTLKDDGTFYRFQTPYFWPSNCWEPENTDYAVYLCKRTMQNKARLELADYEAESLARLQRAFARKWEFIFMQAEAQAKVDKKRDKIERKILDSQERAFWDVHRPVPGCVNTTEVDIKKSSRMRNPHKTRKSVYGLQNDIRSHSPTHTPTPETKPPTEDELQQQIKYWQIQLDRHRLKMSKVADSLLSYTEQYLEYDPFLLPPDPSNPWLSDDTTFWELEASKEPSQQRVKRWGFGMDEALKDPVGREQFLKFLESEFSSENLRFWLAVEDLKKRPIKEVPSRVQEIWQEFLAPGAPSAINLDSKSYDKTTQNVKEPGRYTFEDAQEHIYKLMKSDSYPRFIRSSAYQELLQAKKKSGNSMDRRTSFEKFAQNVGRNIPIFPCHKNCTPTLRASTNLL
T2 sequence (O14775 1-395 partner): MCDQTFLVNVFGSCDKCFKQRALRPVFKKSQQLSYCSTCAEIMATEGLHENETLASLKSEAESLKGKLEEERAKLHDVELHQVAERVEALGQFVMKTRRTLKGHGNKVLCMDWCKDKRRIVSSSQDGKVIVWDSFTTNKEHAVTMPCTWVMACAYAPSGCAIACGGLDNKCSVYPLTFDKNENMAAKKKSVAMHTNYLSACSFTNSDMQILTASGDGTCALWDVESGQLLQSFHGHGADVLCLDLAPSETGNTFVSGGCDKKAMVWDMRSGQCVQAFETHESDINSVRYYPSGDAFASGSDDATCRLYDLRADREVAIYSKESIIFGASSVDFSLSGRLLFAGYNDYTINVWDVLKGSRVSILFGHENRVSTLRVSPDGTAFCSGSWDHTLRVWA
Put plainly: BRET-based GAP assay. In kind it is cell-based. (In BRET a luciferase serves as donor, and the signal depends on an acceptor being close.)

For assay [5], the target named is T1, GPR158. Put plainly: Binding competition, displacement of [3H]-glycine bound to GPR158.
For assay [6], the target named is T1, GPR158. Put plainly: G protein activation by GPR158. It is filed as cell-based. Conditions: any G proteins tested.
Assay [7] addresses T1, GPR158. Briefly: BRET-based cAMP biosensor screen in HEK293 cells expressing GPR158. It is filed as cell-based. Particulars: for cAMP change in cells expressing GPR158 relative to non-transfected cells: BRET cAMP biosensor.
The test system of assay [8] is layer II-III neurons in the prelimbic cortex. Put plainly: Slice electrophysiology, intrinsic excitability of cortical neurons. In kind it is cell-based, mice.

Consider `NCC(=O)O` [[^3H]-glycine, reference compound], for which, on GPR158 [1] (HEK293 cells expressing GPR158, across concentrations), the “binding to GPR158-expressing cells” value was “significant binding”. Moreover, the “[3H]-glycine binding to mutants” value in assay [2] was “near complete loss”.
With `NCC(=O)O` [glycine], on GPR158 [1] (read-out: Kd of GPR158 for glycine, Scatchard analysis, membranes containing GPR158), the Kd is roughly 3 µM. In addition, at GPR158 [3], the “β-arrestin recruitment to GPR158” value is “no significant response”. Besides, on GPR158 [4] (U87 glioblastoma cells lacking GPR158, glycine 100μM), the “cAMP change in cells lacking GPR158” value is “No glycine-induced changes in cAMP”. The “cAMP change in cells expressing GPR158” value at GPR158 [4] (U87 glioblastoma cells, 10μM forskolin, glycine 100μM) is “cAMP decrease”. Also, at GPR158-RGS7/Gβ5 complex (100μM), the “effect on Gαo deactivation, GPR158 co-expressed with RGS7/Gβ5” value is “significantly decelerated Gαo deactivation”. Besides, on GPR158-RGS7/Gβ5 complex (cells without GPR158, 100μM), the “effect on baseline or RGS7/Gβ5-assisted Gαo deactivation without GPR158” value is “no effect”. Moreover, the IC50 on GPR158 [5] (read-out: IC50, displacement of [3H]-glycine bound to GPR158) is roughly 3 µM. The “activation of G proteins by GPR158” value on GPR158 [6] is reported as “no significant activation”. In addition, the “cAMP change in cells expressing GPR158 relative to non-transfected cells” value on GPR158 [7] is on record as “significant decrease in cAMP”. Moreover, the resting membrane potential result in assay [8] (layer II-III neurons) is given as “without changes”. Besides, the “amount of current necessary to elicit the first action potential (rheobase)” value in [8] (layer II-III neurons, glycine 1mM) was “decreasing”. In assay [8] (layer II-III neurons, glycine 1mM, synaptic blockade), the “number of action potentials” value is reported as “significantly increased”. Further, in assay [8] (layer V neurons, which do not express GPR158), the “intrinsic excitability of layer V neurons” value is on record as “did not produce any changes”. Moreover, the “excitability of layer II-III neurons in Gpr158 KO mice” value in assay [8] (prefrontal cortex, Gpr158 KO mice, glycine 1mM) is recorded as “failed to alter excitability”.
At GPR158-RGS7/Gβ5 complex, `NCCS(=O)(=O)O` [taurine] showed an IC50 of roughly 6 µM. Further, the half-maximal inhibitory concentration (IC50) at GPR158 [5] was roughly 6 µM. Further, the “affinity relative to glycine” value at GPR158 [5] (competition with [3H]-glycine) is on record as “two-fold lower affinity”. For the same compound, the “activation of G proteins by GPR158” value at GPR158 [6] was “no significant activation”. In addition, on GPR158 [7], the “effect on GPR158-mediated suppression of cAMP compared directly with glycine” value is reported as “weaker than the effect of glycine” and the “cAMP change in cells expressing GPR158 relative to non-transfected cells” value is “significant decrease in cAMP levels”. Further, the “excitability (neuronal firing) of layer II-III neurons” value in assay [8] (taurine) is “small effects on neuronal firing”.
